Data on 9 molecules can be found in PubChem BioAssay (NCI).

The GI50 is the concentration that inhibits growth by half. Usually TGI stands for the concentration at which net growth stops.

Experiment in all cases: DTP human tumour cell line panel, 48 h
For assay [1], the system named is EKVX NSCLC.
The test system of assay [2] is HOP-62 NSCLC.
In assay [3] the test system is OVCAR-5 ovarian.
Assay [4] relates to MALME-3M melanoma.
Assay [5] has as its system 786-0 renal.
Assay [6] concerns IGROV1 ovarian.
Assay [7] concerns SK-MEL-28 melanoma.
Assay [8] deals with SNB-19 CNS.

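Step 1: Grow cells in 96-well plates. Step 2: Expose to compound for 48 hours at 5 concentrations. Step 3: Interpolate endpoints linearly; if unreached, use highest concentration. Abbreviation: GI50, concentration required for 50% inhibition of growth. TGI is the concentration that stops growth completely.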

For the molecule `COc1ccc(C(CC(=O)c2ccccc2)C(C(=O)c2ccccc2)C(c2ccc(OC)cc2)C2C(=O)NC(=S)NC2=O)cc1` (stereo not drawn), the GI50 in assay [1] was 2.44 µM; in assay [2], 21.1 µM; in assay [3], 13.9 µM; in assay [4], 19.8 µM; in assay [5] it was 21.7 µM; in assay [6], 8.67 µM. For the same molecule, the GI50 was 16 µM in assay [7] and 24.9 µM in assay [8]. Besides, the TGI in assay [1] is 57.2 µM; in assay [2] it was above 100 µM; in assay [3], 37.7 µM; in assay [4], 58.4 µM; in assay [5] it was above 100 µM; in assay [6] it was 48.5 µM. In addition, the TGI in assay [7] and in assay [8] was above 100 µM in each case.

On to `CC1=C[C@H]2C[C@H](C)[C@H]3CC[C@H](C)[C@]4(C1)C(=O)C(O)=C(C)C(=O)[C@@]324`, for which the GI50 was 42.9 µM in assay [1]; 28.7 µM in assay [2]; 20.4 µM in assay [3]; 23.3 µM in assay [4]; 30.1 µM in assay [5]; 29.6 µM in assay [6]. Also, the values for the GI50 in assay [7] and in assay [8] were 26 µM and 30.2 µM, respectively. Moreover, the concentration for total growth inhibition (TGI) was above 100 µM in assay [1]; 83.6 µM in assay [2]; 55.4 µM in assay [3]; 80.7 µM in assay [4]; above 100 µM in assay [5]; above 100 µM in assay [6]. Moreover, the TGI in assay [7] and in assay [8] was above 100 µM throughout.

Regarding `C[C@@H]1COCCN1c1cc(C2([S@@](C)(=N)=O)CC2)nc(-c2ccnc3[nH]ccc23)n1`, the GI50 in assay [1] was 5.78 µM; in assay [2], 3.74 µM; in assay [3], 5.11 µM; in assay [4] it was 7.32 µM; in assay [5] it was 2.7 µM; in assay [6], 5.11 µM. Further, the GI50 in assay [7] is 9.76 µM; in assay [8] it was 7.72 µM. In addition, the TGI is 67.4 µM in assay [1]; 63.6 µM in assay [2]; above 100 µM in assay [3]; 54.6 µM in assay [4]; 26.8 µM in assay [5]; above 71.1 µM in assay [6]. Further, the values for the TGI in assay [7] and in assay [8] were above 88.9 µM and above 100 µM, respectively.

As for `O=C(Nc1cc(Oc2cc(F)c(NC(=O)C3(C(=O)Nc4ccc(F)cc4)CC3)cc2F)ccn1)C1CC1`, the GI50 was 2.42 µM in assay [1]; 2.76 µM in assay [2]; 3.12 µM in assay [3]; 0.324 µM in assay [4]; 3.98 µM in assay [5]; 2.85 µM in assay [6]. The GI50 was 1.64 µM in assay [7] and 3.75 µM in assay [8]. The TGI is 5.51 µM in assay [1]; 8.71 µM in assay [2]; above 100 µM in assay [3]; 2.47 µM in assay [4]; above 50.1 µM in assay [5]; 7.61 µM in assay [6]. In addition, the total growth inhibition concentration (TGI) in assay [7] was 6.33 µM; in assay [8] it was above 100 µM.

For the molecule `O=c1oc2ccc(-c3ccc(F)cc3F)cc2c(=O)n1-c1ccc(Cl)c(C(F)(F)F)c1`, the GI50 in assay [1] is 2.18 µM; in assay [2] it was 1.93 µM; in assay [3] it was 4.31 µM; in assay [4] it was 2.19 µM; in assay [5], 2.34 µM; in assay [6], 3.14 µM. Moreover, the GI50 is 2.05 µM in assay [7] and 3.65 µM in assay [8]. Further, the TGI in assay [1] is 7.54 µM; in assay [2], 4.09 µM; in assay [3], above 100 µM; in assay [4], 5.73 µM; in assay [5], 5.68 µM; in assay [6] it was above 100 µM. Also, the TGI in assay [7] was 5.77 µM; in assay [8], above 100 µM.

`Cc1cccc(NC(=O)/C=C/c2ccc([N+](=O)[O-])cc2)c1`: the TGI was above 56.5 µM in assay [1]; 33.4 µM in assay [2]; above 57 µM in assay [3]; 66.9 µM in assay [4]; above 51.2 µM in assay [5]; above 53.7 µM in assay [6]. Also, the TGI in assay [7] was above 57.6 µM; in assay [8] it was above 47.9 µM.

With `COc1ccc(/C=C\c2cc(OC)c(OC)c(OC)c2)cc1OCC(=O)Nc1ccc2nc(C)sc2c1`, the GI50 was 4.05 µM in assay [1]; 3.09 µM in assay [2]; 6.69 µM in assay [3]; 2.84 µM in assay [4]; 7.55 µM in assay [5]; 3.72 µM in assay [6]. Besides, the figures for the GI50 in assay [7] and in assay [8] were 3.22 µM and 3.89 µM, respectively. Besides, the TGI in assay [1] was above 100 µM; in assay [2], 8.85 µM; in assay [3], above 100 µM; in assay [4], 8.29 µM; in assay [5] it was above 100 µM; in assay [6], 15.7 µM. The TGI in assay [7] is 13.1 µM; in assay [8] it was above 100 µM.

Consider `O=C(CC(=O)c1cccc(Cl)c1)c1cccc(Cl)c1`, for which the GI50 in assay [1] was 2.16 µM; in assay [2] it was 2.59 µM; in assay [3] it was 4.3 µM; in assay [4] it was 2.75 µM; in assay [5] it was 3.86 µM; in assay [6], 2.63 µM. Further, the results for the GI50 in assay [7] and in assay [8] were 2.7 µM and 6.68 µM, respectively. Further, the TGI in assay [1], in assay [2], in assay [3], in assay [4], in assay [5] and in assay [6] was above 100 µM throughout. Further, the TGI in assay [7] and in assay [8] was above 100 µM each time.

Consider `O=C1c2ccccc2C(=O)c2c(NCC3CO3)ccc(NCC3CO3)c21` (stereo not drawn), for which the TGI in assay [1] is above 51.5 µM; in assay [2], 6.96 µM; in assay [3] it was above 65.8 µM; in assay [4], 18.3 µM; in assay [5] it was 5.57 µM; in assay [6] it was 15.9 µM. Further, the concentration for total growth inhibition (TGI) in assay [7] is 28.1 µM; in assay [8], above 39.3 µM.
